Several values for one entry are separate records, joined by “and”; a condition that tells them apart may be missing. Equal entries are not always repeated.
Key:
[1] = system: acetic acid-induced writhing; assay: Analgesia, acetic acid writhing in mice (Assay #503900, Example 1); assay type: in vivo, mouse; conditions: 30 mg/kg PO, 60 minutes before acetic acid
[2] = short-term use following coronary artery by-pass surgery; cited from earlier work
[3] = system: acetic acid-induced writhing; assay: Analgesia, acetic acid writhing in mice (Example 3); assay type: in vivo, mouse; conditions: 100 mg/kg PO
Method: 3-Hydroxyanthranilic acid was evaluated for possible analgesic activity in mouse acetic acid-induced pain response assay.
3-Hydroxyanthranilic acid was purchased from Sigma (USA) by MDS Pharma Services-Taiwan Ltd. and administered orally at the doses of 400, 200 and 100 mg/kg for analgesia, acetic acid-induced writhing assay. 2% Tween 80 was used as the vehicle.
Male CD-1 (Crl.) mice provided by BioLasco Taiwan (under Charles River Laboratories Technology Licensee) were used. Space allocation for 10 animals was 29×18×13 cm. All animals were maintained in a controlled temperature (23° C.-24° C.) and humidity (60%-70%) environment with 12 hours light dark cycles for at least one week in MDS Pharma Services—Taiwan Laboratory prior to use. Free access to standard lab chow for Mice (LabDiet Rodent Diet, PMI Nutrition International, USA) and tap water was granted. All aspects of this work including housing, experimentation and disposal of animals were performed in general accordance with the Guide for the Care and Use of Laboratory Animals (National Academy Press, Washington, D.C., 1996).
Test substance was administered orally to groups of 5 CD-1 (Crl.) derived male or female mice weighing 24±2 g, 2 hour before injection of acetic acid (0.5%, 20 ml/kg IP). Reduction in the number of writhes by 50 percent or more (≧50%) per group of animals observed during the 5 to 10 minute period after acetic acid administration, relative to a vehicle-treated control group, indicates possible analgesic activity.
Test substance was administered orally to groups of 5 mice 1 hour before injection of 0.5% Acetic Acid (20 ml/kg IP). The number of writhing per group of animals observed during the 5 to 10 minute period after acetic acid challenge was observed. Reduction in the number of writhing by 50 percent or more (≧50%) relative to the vehicle-treated control group indicates possible analgesic activity.

[4] = similar adenoma prevention trial; cited from earlier work
[5] = patients in a colorectal adenoma prevention trial; cited from earlier work

With `CC(C)Cc1ccc(C(C)C(=O)O)cc1` (stereo not shown) [Ibuprofen] the “No. of Writhing Average” value ([1]; group of 5 mice) was 8, the “% Inhibition” value ([1]; relative to vehicle control) was “(53) %” and the “No. of Writhing Individual” value ([1]; single mice) was 6 and 8 (2×) and 10 (2×).
For `Cc1onc(-c2ccccc2)c1-c1ccc(S(N)(=O)=O)cc1` [valdecoxib], the “incidence of cardiovascular events” value [2] is listed as “increased incidence”.
With `CC(=O)Oc1ccccc1C(=O)O` [Aspirin] the “No. of Writhing Average” value ([3]; group of 5 mice) was 5, the “% Inhibition” value ([3]; relative to vehicle control) was “(62) %” and the “No. of Writhing Individual” value ([3]; single mice) was 0 and 8 and 3 and 7 and 9.
In the case of `Cc1ccc(-c2cc(C(F)(F)F)nn2-c2ccc(S(N)(=O)=O)cc2)cc1` [celecoxib], the “risk of adverse cardiovascular events” value [4] is given as “triple the risk”.
In the case of `CS(=O)(=O)c1ccc(C2=C(c3ccccc3)C(=O)OC2)cc1` [Rofecoxib, rofecoxib], the “risk of heart attacks or strokes” value [5] is given as “double the risk”.
For `CCC(=O)NS(=O)(=O)c1ccc(-c2c(-c3ccccc3)noc2C)cc1` [parecoxib], the “incidence of cardiovascular events” value [2] is listed as “increased incidence”.

Source: patent US20090197957A1, “Methods and compositions for the treatment of pain” (Nuon Therapeutics, Inc., priority 2005, published 2009)
